A word on the melting point: it is the temperature, or range, at which the solid turns liquid.

The source of these data is the Bradley open melting point set (2014).

“And” between values parts separate entries of the source, which are not always exact repeats. Identical values can stand only once.

`O=C1C=CC(=O)C=C1` [1,4-Benzoquinone] registered a melting point of 114 °C. Next, `CCOCOCC` [diethoxymethane]: -66 °C; `COC(=O)[C@@H]1C2CCC(C[C@@H]1OC(=O)c1ccccc1)N2C` (some centres not stated) [Cocaine]: 195 °C. As to `Cc1ccc(C)n1-c1ccc(C(F)(F)F)cc1` [OSM-S-27], the melting point amounted to 71.5 °C. Next, `Cc1ccc(C(C)C)cc1` [1-Isopropyl-4-methylbenzene]: -68 °C; `CCCCCCCCC(C)O` (configuration not stated) [2-decanol]: -2 °C; `CCC(O)C(C)(C)C` (configuration not stated) [2,2-dimethyl-3-pentanol]: 5 °C.

For `CB(C)Br` [bromodimethylborane], the melting point was -129 °C. Next, `O=C(O)CCCCCCCCC(=O)O` [sebacic_acid]: 133 °C.

`C=Cc1ccc(Cl)cc1` [4-chlorostyrene]: the melting point is -16 °C. Next, `O=C(O)c1ccnc(F)c1` [2-fluoropyridine-4-carboxylic acid]: 346 °C; `CCCCCCCCCCCCCCCC(=O)O` [Palmitic acid]: 62.5 °C. Next, `O=C(O)/C(=C/c1cccc([N+](=O)[O-])c1)c1ccccc1` [(E)-2-phenyl-3-(3-nitrophenyl)propenoic acid]: 185 °C; `CC(COc1ccccc1)NC(C)C(O)c1ccc(O)cc1` (configuration not stated) [isoxsuprine]: 103 °C.

As for `Cc1ccc(C(=O)c2ccccc2)cc1` [4-methylbenzophenone], the melting point came out at 55 °C. Take `CCCCCCCCCCCC(C)O` (configuration not stated) [2-tridecanol]: the melting point stood at 25 °C. Next, `COc1ccc2c(OC)cccc2c1` [1,6-dimethoxynaphthalene]: 59 °C; `Nc1nc(=O)c2nc(CNc3ccc(C(=O)N[C@@H](CCC(=O)O)C(=O)O)cc3)cnc2[nH]1` [Folic Acid]: 250 °C. Turning to `CCc1ccccc1CC` [o-diethylbenzene], the melting point was -31 °C. Next, `CCOc1ccc(N=C=S)cc1` [4-ethoxyphenyl isothiocyanate]: 59 °C; `c1ccc2cc3cc4ccccc4cc3cc2c1` [Naphthacene]: 357 °C; `O=C[C@H](O)[C@H](O)[C@H](O)CO` [D-ribose]: 84 °C. In turn, `Nc1c(Cl)cc([N+](=O)[O-])cc1[N+](=O)[O-]` [6-chloro-2,4-dinitroaniline] displayed a melting point of 157 °C. Next, `CCCCC(=O)O` [pentanoic acid]: -33.9 °C and -33.7 °C; `CC1(O)CCCCC1` [1-methylcyclohexanol]: 26 °C; `COc1cc(C(=O)OCc2cccc(COC(=O)c3cc(OC)c(OC)c(OC)c3)n2)cc(OC)c1OC` [pirozadil]: 119 °C. Next, `OCCCCCCO` [1,6-hexanediol]: 45 °C; `C1COCOC1` [1,3-Dioxane]: -42 °C; `CCC(C)OC(C)=O` (configuration not stated) [sec-butyl acetate]: -99 °C. As for `C=CCSCC=C` [diallyl sulfide], the melting point was -83 °C. With `Cc1ccc(Cl)cc1[N+](=O)[O-]` [4-chloro-2-nitrotoluene], the melting point worked out at 39 °C. As to `CCC(C)I` (configuration not stated) [2-Iodobutane], the melting point is -104 °C. `CCCCCCCCCCCCCCCC(C)C` [2-methylheptadecane] gave a melting point of 6 °C.

As to `Nc1cccc(Cl)c1` [3-chloroaniline], the melting point is -10 °C. Next, `CC1=CC(=O)C=C(C)C1=O` [2,6-dimethyl-p-benzoquinone]: 70 °C; `COc1cc(C=O)cc(OC)c1OC` [3,4,5-trimethoxybenzaldehyde]: 75 °C; `CCC(C)Cl` (configuration not stated) [2-chlorobutane]: -131 °C. Next, `COc1ccc(C=O)c(OC)c1` [2,4-dimethoxybenzaldehyde]: 72 °C; `COC(=O)c1cc(F)ccc1N` [methyl 2-amino-5-fluorobenzoate]: 23 °C; `Cc1cc(C)c(Br)c(C)c1` [2-bromomesitylene]: 2 °C. In turn, `C[C@]12CC[C@H]3[C@@H](CCC4=CC(=O)CC[C@@]43C)[C@@H]1CC[C@@H]2O` [testosterone] registered a melting point of 154 °C. Next, `c1ccc2c(c1)oc1ccccc12` [dibenzofuran]: 81 °C.

In the case of `COC(=O)c1ccc([N+](=O)[O-])cc1` [methyl_4-nitrobenzoate], the melting point amounted to 96 °C.

`OC(CCN1CCCCC1)(c1ccccc1)C1CCCCC1` (configuration not stated) [trihexyphenidyl] gave a melting point of 115 °C. Next, `COC(=O)c1ccc(N)cc1` [methyl 4-aminobenzoate]: 114 °C; `Ic1ccc(-c2ccccc2)cc1` [4-iodobiphenyl]: 114 °C. Next, `Br/C(C)=CC` [2-bromo-cis-2-butene]: -111 °C; `O=c1c2ccccc2sc2ccccc12` [thioxanthen-9-one]: 212 °C. Next, `COc1ccc(OC)c2c1C(=O)OC2O` (configuration not stated) [3-hydroxy-4,7-dimethoxy-2-benzofuran-1(3H)-one]: 192 °C; `CCc1ccc(C)cc1` [4-ethyltoluene]: -62 °C. `O=C(CCc1ccccc1)/C(=N/O)c1ccccc1` [(1E)-1,4-diphenylbutane-1,2-dione 1-oxime] gave a melting point of 130 °C. Next, `Cn1cnc(C(=O)O)c1` [1-methylimidazole-4-carboxylic acid]: 242 °C; `Clc1cccc(-c2ccccc2)c1` [3-chlorobiphenyl]: 18 °C.

In the case of `C[C@H]1O[C@@H](O[C@H]2[C@@H](O)C[C@H](O[C@H]3[C@@H](O)C[C@H](O[C@H]4CC[C@@]5(C)[C@H](CC[C@@H]6[C@@H]5C[C@@H](O)[C@]5(C)C(C7=CC(=O)OC7)CC[C@]65O)C4)O[C@@H]3C)O[C@@H]2C)C[C@H](O)[C@@H]1O` (some centres not stated) [Digoxin], the melting point is 249 °C. Turning to `CCOC(=O)C1(c2ccccc2)CCN(C)CC1` [Meperidine], the melting point was determined as 188 °C. Next, `CCCCCC(=O)CCCCC` [6-undecanone]: 15 °C. Next, `COc1ccc(C(=O)c2ccc(-c3ccccc3)cc2)cc1OC` [biphenyl-4-yl(3,4-dimethoxyphenyl)methanone]: 108 °C; `CC(C)=CCC/C(C)=C/CC/C(C)=C/CC/C=C(\C)CC/C=C(\C)CCC=C(C)C` [squalene]: -75 °C; `CNC(C)C(O)c1ccccc1` (configuration not stated) [2-(Methylamino)-1-phenylpropan-1-ol]: 36 °C. `[2H]C([2H])=C(C(=O)OC([2H])([2H])[2H])C([2H])([2H])[2H]` [(~2~H_3_)Methyl 2-(~2~H_3_)methyl(~2~H_2_)prop-2-enoate]: the melting point is -48 °C. Regarding `Cc1cc(Cl)nc2ccccc12` [2-Chloro-4-methylquinoline], the melting point was 56.9 °C. Next, `COc1ccccc1[N+](=O)[O-]` [o-nitroanisole]: 10 °C; `CCCCCCCCCC(=O)O` [Decanoic acid]: 31 °C; `O=C(O)c1cc(Cl)c(O)c(Cl)c1` [3,5-dichloro-4-hydroxybenzoic acid]: 268 °C. Consider `CC(C)C#N` [2-Methylpropanenitrile], for which the melting point is -72 °C. Next, `N#CCc1ccc(N)cc1` [4-aminophenylacetonitrile]: 44 °C. `Cc1ccccc1-c1ccccc1` [2-methylbiphenyl] registered a melting point of 0 °C.

As to `O=C1/C(=N\Nc2cccc(F)c2)C(C(F)(F)F)=NN1c1ccccc1`, the melting point was found to be 106 °C.

As for `O=C(O)Cc1ccccc1Oc1ccc(Cl)cc1Cl` [fenclofenac], the melting point was found to be 135 °C.

Regarding `OCCc1ccccc1` [2-phenylethanol], the melting point is -27 °C. Next, `C[C@]12CC[C@@H]3c4ccc(O)cc4CC[C@H]3[C@@H]1C[C@@H](O)[C@@H]2O` [estriol]: 282 °C; `N#CCCO` [3-hydroxypropionitrile]: -46 °C. Next, `C1CCC(NC2CCCCC2)CC1` [dicyclohexylamine]: -2 °C. Molecule `COC(=O)c1ccc(C(C)=O)cc1` [methyl 4-acetylbenzoate] gave a melting point of 86 °C. `CCCc1ccc(O)cc1` [4-propylphenol] yielded a melting point of 22 °C. Regarding `NC(=O)C(F)(F)F` [2,2,2-trifluoroacetamide], the melting point stood at 73 °C. As for `O=C(O)c1cccnc1` [nicotinic acid], the melting point is 237 °C (2×) and 238 °C.

The molecule `NCCNCCNCCN` [N,N'-Bis(2-aminoethyl)ethane-1,2-diamine] gave a melting point of 12 °C.

In the case of `O=C1Nc2ccc(Cl)cc2C(c2ccccc2Cl)=NC1O` (configuration not stated) [Lorazepam], the melting point was 166 °C. As for `CCC(C)=O` [2-butanone], the melting point is -87 °C.

For the molecule `O=C1C=CCCC1` [2-cyclohexene-1-one], the melting point was -53 °C. `Nc1ccc(I)cc1` [4-iodoaniline] yielded a melting point of 63 °C. For the molecule `Cc1cc(C)nc(N)n1` [2-amino-4,6-dimethylpyrimidine], the melting point worked out at 153 °C. Take `COc1ccccc1-c1ccc(/C=C/C(=O)c2ccco2)o1`: the melting point came out at 97 °C. Next, `c1ccc(CN(Cc2ccccc2)c2ccccc2)cc1` [N,N-dibenzylaniline]: 70 °C.

On to `C[Si](C)(C)Br` [bromotrimethylsilane], for which the melting point is -44 °C. Next, `CC(C)(C)c1ccccc1` [tert-butylbenzene]: -58 °C; `CCOc1ccc(N)cc1` [4-Ethoxyaniline]: 3 °C. Next, `C(=N\c1ccccc1Nc1ccccc1/N=C/c1ccccc1)/c1ccccc1`: 103 °C; `Cc1ccc([N+](=O)[O-])cc1Cl` [2-chloro-4-nitrotoluene]: 60 °C. Next, `Clc1cccc2ccccc12` [1-Chloronaphthalene]: -21.5 °C; `CCC1(c2ccccc2)NC(=O)N(C)C1=O` (configuration not stated) [Mephenytoin]: 135 °C.
